ChEMBL document CHEMBL1240533, “Selectivity and potency of cyclin-dependent kinase inhibitors” (AAPS J, 2006)

target: Cyclin-dependent kinase 4 (Homo sapiens, UniProt P11802)
Sequence (P11802 whole entry): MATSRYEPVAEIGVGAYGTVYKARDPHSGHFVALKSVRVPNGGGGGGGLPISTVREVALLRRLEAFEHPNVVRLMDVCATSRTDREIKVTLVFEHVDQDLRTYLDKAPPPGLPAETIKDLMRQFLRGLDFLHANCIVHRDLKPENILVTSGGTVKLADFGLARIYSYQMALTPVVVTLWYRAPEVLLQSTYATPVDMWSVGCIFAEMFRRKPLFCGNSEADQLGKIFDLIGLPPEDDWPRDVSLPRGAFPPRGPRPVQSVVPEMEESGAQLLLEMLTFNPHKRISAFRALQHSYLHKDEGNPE

Row | IC50 [nM] | SMILES
1 | 810 | Nc1nc2ccc(C(=O)c3c(F)cccc3Cl)cc2n1Cc1c(F)cccc1F
2 | 2 | O=C(Nc1ccccn1)Nc1cccc2c1[C@H]1CCCN1C2=O
3 | > 2100 | CC(C)(C)Nc1nc(C(F)(F)F)nc2ccc(Nc3ccccc3)cc12
4 | > 10000 | O=C1Cc2c([nH]c3ccc([N+](=O)[O-])cc23)-c2ccccc2N1 [ALSTERPAULLONE]
5 | > 10000 | O=C(Cc1ccc2ccccc2c1)Nc1cc(C2CC2)n[nH]1
6 | 200 | O=C1C(c2c(O)[nH]c3ccc(S(=O)(=O)O)cc23)=Nc2ccccc21
7 | 260 | CN(C)CCNS(=O)(=O)c1ccc(Nc2cccc(-c3cnc4ccccn34)c2)cc1
8 | 230 | Nc1nc(N)c(N=O)c(=O)[nH]1
9 | 150 | Cc1ccc(F)c(Nc2nccc(-c3ccc(S(N)(=O)=O)cc3)n2)c1
10 | 2700 | CCCCOc1c(C(=O)c2c(F)cc(C)cc2F)ccc2[nH]ncc12

target: Cyclin-dependent kinase 6 (Homo sapiens, UniProt Q00534)
Sequence (Q00534 whole entry): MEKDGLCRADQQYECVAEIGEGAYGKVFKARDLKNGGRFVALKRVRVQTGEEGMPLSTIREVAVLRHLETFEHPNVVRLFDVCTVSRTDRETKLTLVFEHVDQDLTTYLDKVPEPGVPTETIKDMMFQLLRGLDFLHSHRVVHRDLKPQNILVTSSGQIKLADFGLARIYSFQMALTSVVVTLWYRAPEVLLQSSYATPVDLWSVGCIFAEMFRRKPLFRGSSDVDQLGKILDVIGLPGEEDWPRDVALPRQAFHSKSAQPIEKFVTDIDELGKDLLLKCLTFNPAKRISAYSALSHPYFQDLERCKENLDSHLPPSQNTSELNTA

Row | IC50 [nM] | SMILES
11 | 5600 | CCNc1cc(N[C@H]2CC[C@@H](O)CC2)nc(Nc2ccc3c(ccn3Cc3ccccc3)c2)n1

target: Cyclin-dependent kinase 2/cyclin A (Homo sapiens, UniProt P24941); format: protein-complex assay
Description: Inhibition of CDK2/cyclin A

Row | SMILES | IC50 [nM]
12 | CC(=O)N[C@@H](CCCN=C(N)N)C(=O)N[C@@H](CCCN=C(N)N)C(=O)N[C@@H](CC(C)C)C(=O)N[C@@H](CC(N)=O)C(=O)N[C@@H](Cc1ccccc1)C(N)=O | > 50000

target: Cyclin-dependent kinase 5 (Homo sapiens, UniProt Q00535)
Sequence (Q00535 whole entry): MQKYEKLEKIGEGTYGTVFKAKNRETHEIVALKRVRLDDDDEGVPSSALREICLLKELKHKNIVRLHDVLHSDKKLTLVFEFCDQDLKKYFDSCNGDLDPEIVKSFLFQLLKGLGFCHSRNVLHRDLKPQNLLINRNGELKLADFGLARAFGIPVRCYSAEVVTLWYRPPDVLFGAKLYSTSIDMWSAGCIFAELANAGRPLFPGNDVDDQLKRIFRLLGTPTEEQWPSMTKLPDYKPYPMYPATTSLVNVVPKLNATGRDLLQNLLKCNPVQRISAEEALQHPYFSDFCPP

Row | IC50 [nM] | SMILES
13 | 5 | O=C(Nc1cc(C2CCC2)c[nH]1)Nc1cccc2ccncc12
14 | 25000 | CCNc1cc(N[C@H]2CC[C@@H](O)CC2)nc(Nc2ccc3c(ccn3Cc3ccccc3)c2)n1
15 | 25000 | CC1(C)CC2(C)Nc3cc(-c4ccc5c(c4)NC4(C)CC(C)(C)NC(=S)N54)ccc3N2C(=S)N1 (stereo unspecified)
16 | 5 | COc1ccc(-c2[nH]nc3c2C(=O)c2c(NC(=O)NNC(=O)c4ccc(O)cc4)cccc2-3)cc1
